Measured values reported in patent US20250122223A1, “HETEROCYCLIC COMPOUNDS AS UBIQUITIN SPECIFIC PROTEASE 7 INHIBITORS” (ALMAC DISCOVERY LIMITED, priority 2022, published 2025).
Where two headings read alike, the source gives them in different places.

Target: USP7 (Homo sapiens (Human), UniProt Q93009)
Experiment: USP7 fluorescence polarisation (FP) assay with ubiquitin-Lys-TAMRA substrate
Assay type: biochemical
Details: biochemical inhibition
[1] = read-out: USP7 IC50 activity (Table 3a, classes)
[2] = unit not given in Table 3b (Table 1 and key of Table 3a use μM), read-out: USP7 IC50 activity (Table 3b)

Sequence of USP7 (Q93009 whole entry): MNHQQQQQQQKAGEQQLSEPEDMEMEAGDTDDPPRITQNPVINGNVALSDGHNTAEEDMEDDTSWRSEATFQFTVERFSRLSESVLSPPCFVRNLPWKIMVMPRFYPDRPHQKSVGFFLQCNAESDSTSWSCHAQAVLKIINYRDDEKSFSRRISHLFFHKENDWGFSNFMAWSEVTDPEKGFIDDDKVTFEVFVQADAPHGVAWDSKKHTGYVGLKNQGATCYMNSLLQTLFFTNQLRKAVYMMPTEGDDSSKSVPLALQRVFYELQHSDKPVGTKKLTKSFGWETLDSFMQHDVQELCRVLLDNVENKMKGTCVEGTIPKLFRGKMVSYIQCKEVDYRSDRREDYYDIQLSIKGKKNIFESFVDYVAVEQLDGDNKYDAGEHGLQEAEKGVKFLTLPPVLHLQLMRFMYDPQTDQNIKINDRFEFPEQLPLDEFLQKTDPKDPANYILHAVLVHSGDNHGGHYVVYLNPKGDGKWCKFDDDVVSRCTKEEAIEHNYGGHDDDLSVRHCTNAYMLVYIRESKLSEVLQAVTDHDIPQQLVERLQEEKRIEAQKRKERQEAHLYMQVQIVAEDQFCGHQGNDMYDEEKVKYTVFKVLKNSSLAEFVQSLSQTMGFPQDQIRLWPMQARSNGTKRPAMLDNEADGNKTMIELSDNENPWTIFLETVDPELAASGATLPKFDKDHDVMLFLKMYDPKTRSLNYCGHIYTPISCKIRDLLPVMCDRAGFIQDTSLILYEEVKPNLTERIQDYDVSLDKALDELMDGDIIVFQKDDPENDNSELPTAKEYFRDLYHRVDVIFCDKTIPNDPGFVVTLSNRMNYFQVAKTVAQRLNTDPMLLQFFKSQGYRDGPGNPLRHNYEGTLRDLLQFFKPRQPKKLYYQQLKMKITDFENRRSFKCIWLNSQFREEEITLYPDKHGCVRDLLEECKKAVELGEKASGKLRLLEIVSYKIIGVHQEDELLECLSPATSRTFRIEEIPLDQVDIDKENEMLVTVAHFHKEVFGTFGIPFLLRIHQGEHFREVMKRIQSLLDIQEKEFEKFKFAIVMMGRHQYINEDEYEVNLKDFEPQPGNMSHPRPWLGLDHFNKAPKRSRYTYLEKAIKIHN

In the case of O=C(C[C@H](c1ccccc1)C(F)(F)F)N1CCC(O)(Cn2cnc3c(cc(Cl)n3-c3ccc([C@H]4COCCN4)cc3)c2=O)CC1 (single isomer, unassigned) [Example 78], the IC50 [1] is reported as < 0.1 µM and the IC50 [2] is reported as 0.016 µM.
With CC[C@H]1CN[C@H](c2ccc(-n3c(Cl)cc4c(=O)n(CC5(O)CCN(C(=O)c6ccc(Cl)cc6)CC5)cnc43)cc2)CO1 [Example 46, 6-Chloro-3-((1-(4-chlorobenzoyl)-4-hydroxypiperidin-4-yl)methyl)-7-(4-((3R,6S)-6-ethylmorpholin-3-yl)phenyl)-3,7-dihydro-4H-pyrrolo[2,3-d]pyrimidin-4-one] the IC50 [1] was 0.1 to 0.25 µM and the IC50 [2] was 0.162 µM.
Molecule C[C@H]1CN[C@H](c2ccc(-n3c(Cl)cc4c(=O)n(CC5(O)CCN(C(=O)c6ccccc6F)CC5)cnc43)cc2)CO1 [Example 36, 6-Chloro-3-((1-(2-fluorobenzoyl)-4-hydroxypiperidin-4-yl)methyl)-7-(4-((3R,6S)-6-methylmorpholin-3-yl)phenyl)-3,7-dihydro-4H-pyrrolo[2,3-d]pyrimidin-4-one] has an IC50 [1] of 0.25 to 2 µM and an IC50 [2] of 0.511 µM.
Molecule C[C@H]1CN[C@H](c2ccc(-n3c(Cl)cc4c(=O)n(CC5(O)CCN(C(=O)c6ccc(F)cc6F)CC5)cnc43)cc2)CO1 [Example 22, 6-Chloro-3-((1-(2,4-difluorobenzoyl)-4-hydroxypiperidin-4-yl)methyl)-7-(4-((3R,6S)-6-methylmorpholin-3-yl)phenyl)-3,7-dihydro-4H-pyrrolo[2,3-d]pyrimidin-4-one] has an IC50 [1] of 0.1 to 0.25 µM and an IC50 [2] of 0.222 µM.
With C[C@@H]1CN[C@@H](c2ccc(-n3c(Cl)cc4c(=O)n(CC5(O)CCN(C(=O)[C@]6(C)C[C@H]6C(F)(F)F)CC5)cnc43)cc2)CO1 [Example 108, 6-Chloro-3-((4-hydroxy-1-((1R,2R)-1-methyl-2-(trifluoromethyl)cyclopropane-1-carbonyl)piperidin-4-yl)methyl)-7-(4-((3S,6R)-6-methylmorpholin-3-yl)phenyl)-3,7-dihydro-4H-pyrrolo[2,3-d]pyrimidin-4-one] the IC50 [1] was < 0.1 µM and the IC50 [2] was 0.042 µM.
In the case of CC1(C)COCC(c2ccc(-n3c(Cl)cc4c(=O)n(CC5(O)CCN(C(=O)C6(C)CC6)CC5)cnc43)cc2)N1 (stereo not shown) [Example 15, 6-Chloro-7-(4-(5,5-dimethylmorpholin-3-yl)phenyl)-3-((4-hydroxy-1-(1-methylcyclopropane-1-carbonyl)piperidin-4-yl)methyl)-3,7-dihydro-4H-pyrrolo[2,3-d]pyrimidin-4-one], the IC50 [1] is reported as 0.1 to 0.25 µM and the IC50 [2] is reported as 0.169 µM.
For C[C@H]1COC[C@@H](c2ccc(-n3c(Cl)cc4c(=O)n(CC5(O)CCN(C(=O)C6(C)CC6)CC5)cnc43)cc2)N1 (racemic) [Example 2, rac-6-Chloro-3-((4-hydroxy-1-(1-methylcyclopropane-1-carbonyl)piperidin-4-yl)methyl)-7-(4-((3R,5S)-5-methylmorpholin-3-yl)phenyl)-3,7-dihydro-4H-pyrrolo[2,3-d]pyrimidin-4-one], the IC50 [1] was < 0.1 µM and the IC50 [2] was 0.046 µM.
In the case of CC1(C)CN[C@H](c2ccc(-n3c(Cl)cc4c(=O)n(CC5(O)CCN(C(=O)c6ccc(Cl)cc6)CC5)cnc43)cc2)CO1 (single isomer, unassigned) [Example 34], the IC50 [1] is reported as < 0.1 µM and the IC50 [2] is reported as 0.088 µM.
Molecule C[C@H]1CN[C@H](c2ccc(-n3c(Cl)cc4c(=O)n(CC5(O)CCN(C(=O)c6ccc(C(F)(F)F)cc6)CC5)cnc43)cc2)CO1 [Example 65, 6-Chloro-3-((4-hydroxy-1-(4-(trifluoromethyl)benzoyl)Piperidin-4-yl)methyl)-7-(4-((3R,6S)-6-methylmorpholin-3-yl)phenyl)-3,7-dihydro-4H-pyrrolo[2,3-d]pyrimidin-4-one] has an IC50 [1] of 0.1 to 0.25 µM and an IC50 [2] of 0.156 µM.
With O=C(N1CCC(O)(Cn2cnc3c(cc(Cl)n3-c3ccc([C@@H]4COC5(CCC5)CN4)cc3)c2=O)CC1)C1(C2CC2)CC1 (racemic) [Example 43, 7-(4-(5-Oxa-8-azaspiro[3.5]nonan-7-yl)phenyl)-3-((1-([1,1′-bi(cyclopropane)]-1-carbonyl)-4-hydroxypiperidin-4-yl)methyl)-6-chloro-3,7-dihydro-4H-pyrrolo[2,3-d]pyrimidin-4-one] the IC50 [1] was < 0.1 µM and the IC50 [2] was 0.05 µM.
With CC[C@@H]1CN[C@@H](c2ccc(-n3c(Cl)cc4c(=O)n(CC5(O)CCN(C(=O)C6(C)CC6)CC5)cnc43)cc2)CO1 [Example 105, 6-Chloro-7-(4-((3S,6R)-6-ethylmorpholin-3-yl)phenyl)-3-((4-hydroxy-1-(1-methylcyclopropane-1-carbonyl)piperidin-4-yl)methyl)-3,7-dihydro-4H-pyrrolo[2,3-d]pyrimidin-4-one] the IC50 [1] was < 0.1 µM and the IC50 [2] was 0.073 µM.
Molecule C[C@H]1CN[C@H](c2ccc(-n3c(Cl)cc4c(=O)n(CC5(O)CCN(C(=O)[C@@]6(C)C[C@@H]6C(F)F)CC5)cnc43)cc2)CO1 [Example 111, 6-Chloro-3-((1-((1 S,2S)-2-(difluoromethyl)-1-methylcyclopropane-1-carbonyl)-4-hydroxypiperidin-4-yl)methyl)-7-(4-((3R,6S)-6-methylmorpholin-3-yl)phenyl)-3,7-dihydro-4H-pyrrolo[2,3-d]pyrimidin-4-one] has an IC50 [1] of 0.1 to 0.25 µM and an IC50 [2] of 0.145 µM.
Molecule Cc1ccc(C(=O)N2CCC(O)(Cn3cnc4c(cc(Cl)n4-c4ccc([C@H]5CO[C@H](C)CN5)c(C)c4)c3=O)CC2)c(C)c1 [Example 58, 6-Chloro-3-((1-(2,4-dimethylbenzoyl)-4-hydroxypiperidin-4-yl)methyl)-7-(3-methyl-4-((3S,6R)-6-methylmorpholin-3-yl)phenyl)-3,7-dihydro-4H-pyrrolo[2,3-d]pyrimidin-4-one] has an IC50 [1] of 0.25 to 2 µM and an IC50 [2] of 0.414 µM.
Cc1ccc(C(=O)N2CCC(O)(Cn3cnc4c(cc(Cl)n4-c4ccc([C@@H]5CO[C@@H](C)CN5)cc4)c3=O)CC2)c(C)c1 [Example 59, 6-Chloro-3-((1-(2,4-dimethylbenzoyl)-4-hydroxypiperidin-4-yl)methyl)-7-(4-((3R,6S)-6-methylmorpholin-3-yl)phenyl)-3,7-dihydro-4H-pyrrolo[2,3-d]pyrimidin-4-one] gave an IC50 [1] of 0.25 to 2 µM and an IC50 [2] of 0.545 µM.
Cc1cc(-n2c(Cl)cc3c(=O)n(CC4(O)CCN(C(=O)c5ccc(Cl)cc5F)CC4)cnc32)ccc1[C@H]1CO[C@H](C)CN1 [Example 50, 6-Chloro-3-((1-(4-chloro-2-fluorobenzoyl)-4-hydroxypiperidin-4-yl)methyl)-7-(3-methyl-4-((3S,6R)-6-methylmorpholin-3-yl)phenyl)-3,7-dihydro-4H-pyrrolo[2,3-d]pyrimidin-4-one] was tested, and the IC50 [1] was 0.1 to 0.25 µM and the IC50 [2] was 0.164 µM.
Cc1cc(-n2c(Cl)cc3c(=O)n(CC4(O)CCN(C(=O)c5ccc(Cl)cc5)CC4)cnc32)ccc1[C@@H]1CO[C@@H](C)CN1 [Example 5, 6-Chloro-3-((1-(4-chlorobenzoyl)-4-hydroxypiperidin-4-yl)methyl)-7-(3-methyl-4-((3R,6S)-6-methylmorpholin-3-yl)phenyl)-3,7-dihydro-4H-pyrrolo[2,3-d]pyrimidin-4-one] gave an IC50 [1] of 0.1 to 0.25 µM and an IC50 [2] of 0.225 µM.
O=C(c1ccc(Cl)cc1)N1CCC(O)(Cn2cnc3c(cc(Cl)n3-c3ccc([C@H]4COCCN4)cc3)c2=O)CC1 (single isomer, unassigned) [Example 76] was tested, and the IC50 [1] was < 0.1 µM and the IC50 [2] was 0.038 µM.
